The supplement of paper PMC12533247

Assays:
[1] = test system: HSV-1 K26-GFP infected 3D skin equivalent; assay: % activity on HSV-1 GFP signal (0 = infected DMSO control, -100 = uninfected control); higher = higher signal (negative = inhibition / toxicity); details: time (h post infection): 48
Experimental: (§1)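 Triplicate dose-response (0.04 to 10 uM) of 11 top compounds in 3D bioprinted skin equivalents (submerged and ALI models) infected with GFP-HSV-1 K26 at MOI 0.1 and fixed at 48 hpi. GFP (virus) and tdTomato (fibroblast viability) signals are normalised to per-plate controls.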

[2] = test system: HSV-1 K26-GFP infected 3D skin equivalent; assay: % change of tdTomato fibroblast signal relative to infected DMSO control; higher = higher signal (negative = inhibition / toxicity); details: time (h post infection): 48
Experimental: as §1

[3] = test system: HSV-1 K26-GFP infected primary human skin cells; assay: % change of HSV-1 GFP signal vs untreated infected cells; higher = less antiviral inhibition; details: cell type: primary dermal fibroblasts, time (h post infection): 48
Experimental: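 2D primary donor-derived dermal fibroblasts infected with GFP-HSV-1 K26 at MOI 1, treated 1 h later with compound dilutions and read at 48 hpi on IncuCyte. GFP integrated intensity is normalised to mock-infected and untreated infected wells (% change; -100 = full inhibition).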

[4] = test system: HSV-1 K26-GFP infected primary human skin cells; assay: as above
Experimental: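 2D primary donor-derived keratinocytes (read at 20 hpi) and donor-matched dermal fibroblasts (read at 48 hpi) infected with GFP-HSV-1 K26 at MOI 1 and treated 1 h later with compound dilutions. IncuCyte GFP integrated intensity is normalised by subtracting mock-infected wells and dividing by untreated infected wells, shown as % change (-100 = full inhibition).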

O=C(Nc1ccc([N+](=O)[O-])cc1Cl)c1cc(Cl)ccc1O [Niclosamide]
Details | % activity on HSV-1 GFP signal [%] | % change of HSV-1 GFP signal [%] | % change of tdTomato fibroblast signal [%]
[1], 0.041152 µM, model: ALI | -0.742 | – | –
[1], 0.041152 µM, model: submerged | -3.85 | – | –
[1], 0.123457 µM, model: ALI | -58.6 | – | –
[1], 0.123457 µM, model: submerged | -3.15 | – | –
[1], 0.37037 µM, model: ALI | -102 | – | –
[1], 0.37037 µM, model: submerged | -59.6 | – | –
[1], 1.111111 µM, model: ALI | -99.3 | – | –
[1], 1.111111 µM, model: submerged | -88.3 | – | –
[1], 3.33333 µM, model: ALI | -103 | – | –
[1], 3.33333 µM, model: submerged | -92.9 | – | –
[1], 10 µM, model: ALI | -98.7 | – | –
[1], 10 µM, model: submerged | -97.1 | – | –
[2], 0.041152 µM, model: ALI | – | – | 8.37
[2], 0.041152 µM, model: submerged | – | – | -8.01
[2], 0.123457 µM, model: ALI | – | – | 0.996
[2], 0.123457 µM, model: submerged | – | – | -14.3
[2], 0.37037 µM, model: ALI | – | – | -9.97
[2], 0.37037 µM, model: submerged | – | – | -34
[2], 1.111111 µM, model: ALI | – | – | -7.62
[2], 1.111111 µM, model: submerged | – | – | -44.6
[2], 3.33333 µM, model: ALI | – | – | -10.3
[2], 3.33333 µM, model: submerged | – | – | -44.5
[2], 10 µM, model: ALI | – | – | -8.58
[2], 10 µM, model: submerged | – | – | -47.05
[3], 0.003 µM, donor: 3 | – | 15.6 | –
[3], 0.003 µM, donor: 4 | – | -6.77 | –
[3], 0.0091 µM, donor: 3 | – | 8.69 | –
[3], 0.0091 µM, donor: 4 | – | -8.38 | –
[3], 0.0274 µM, donor: 3 | – | 9.83 | –
[3], 0.0274 µM, donor: 4 | – | -13.9 | –
[3], 0.0823 µM, donor: 3 | – | -4.14 | –
[3], 0.0823 µM, donor: 4 | – | -18.7 | –
[3], 0.2469 µM, donor: 3 | – | -45.2 | –
[3], 0.2469 µM, donor: 4 | – | -48.5 | –
[3], 0.7407 µM, donor: 3 | – | -76.3 | –
[3], 0.7407 µM, donor: 4 | – | -63.1 | –
[3], 2.2222 µM, donor: 3 | – | -89.3 | –
[3], 2.2222 µM, donor: 4 | – | -95.5 | –
[3], 6.6667 µM, donor: 3 | – | -99.57 | –
[3], 6.6667 µM, donor: 4 | – | -99.828 | –
[3], 20 µM, donor: 3 | – | -100.1 | –
[3], 20 µM, donor: 4 | – | -99.921 | –
[3], 60 µM, donor: 3 | – | -100.1 | –
[3], 60 µM, donor: 4 | – | -99.98 | –

% change of HSV-1 GFP signal [%], [4]
Details | 0.003 µM | 0.0091 µM | 0.0274 µM | 0.0823 µM | 0.2469 µM | 0.7407 µM | 2.2222 µM | 6.6667 µM | 20 µM | 60 µM
cell type: primary dermal fibroblasts, donor: 5, time (h post infection): 48 | -6.14 | -7.3 | -10.1 | -19.9 | -37 | -51.4 | -90 | -99.53 | -99.789 | -99.78
cell type: primary keratinocytes, donor: 3, time (h post infection): 20 | 4.62 | 3.94 | 6.19 | 9.78 | 4.16 | 0.034 | -16.7 | -24.7 | -62.7 | -81.3
cell type: primary keratinocytes, donor: 4, time (h post infection): 20 | -0.953 | -7.59 | -0.315 | -0.334 | -9.22 | -11.5 | -22.6 | -42.3 | -61.2 | -95.4
cell type: primary keratinocytes, donor: 5, time (h post infection): 20 | 2.55 | -1.84 | 0.0858 | 1.91 | 2.59 | -2.44 | -35.9 | -52.8 | -76.5 | -95.1
